No end group written: not given here.
Tests used:
E. faecalis LMGT 3571 = test system: E. faecalis LMGT 3571
Description: (§1) Bacterial strains, growth conditions, bacteriocins and antimicrobial assays. All the strains (see below) used in minimal inhibitory concentration (MIC) assays (Varahan et al., 2014, M. Bio. 5:e01726-01714) were grown in BHI medium (Oxoid) at 30° C. without shaking. A collection of E. faecium strains isolated from blood in patients from different European hospitals was received from Department of Medical Microbiology, University Medical Center Utrecht, the Netherlands. […] Synthesized peptides were solubilized to concentrations of 10.0-0.1 mg/ml in 0.1% (vol/vol) trifluoroacetic acid and stored at −20° C. until use. […] Bacteriocin activity was determined by microtiter plate assay as previously described (Holo et al., 1991, J. Bacteriol., 173:3879-3887). The MIC was defined as the minimal bacteriocin concentration that inhibited the growth of the indicator strain by at least 50% (50% of the turbidity of the control culture without bacteriocin) in 200 μl culture. CD Spectroscopy Circular dichroism (CD) spectra were recorded using a Jasco J-810 spectropolarimeter (Jasco International Co) calibrated with D-camphor-10-sulfonate (Icatayama Chemical). All measurements were made using a quartz cuvette (Sterna) with 0.1 cm path length. Samples were scanned five times with a scanning rate of 50 nm/min with a bandwidth of 0.5 nm and response time of 1 s over the wavelength range 190-250 nm. Spectra were recorded at different (30 and 50%) trifluoroethanol (TFE) (Aldridge) concentrations at 25° C. The approximate α-helical content of the protein was estimated from its molar ellipticity at 222 nm (Scholtz et al., 1991, Biopolymers 31:1463-1470). NMR Spectroscopy The experiments were run on a sample containing 1.0 mM EntK1, 50% D3-TFE (99.5% D) (Aldrich), Milli-Q water and 0.2 mM of 4,4-dimethyl-4-silapentane-1-sulfonic acid (DSS) (Larodan). 2D NOESY (Jeener et al., 1979, J. Magn. Reson., 71:4546-4553), 2D TOCSY (Braunschweiler and Ernst, 1983, J. Magn. Reson., 53:521-528), 2D DQCOSY, ^15N-HSQC (Davis et al., 1992, J. Magn. Reson., 98:207-216) and ^13C-HSQC (Hurd, 1991, J. Magn. Reson., 91:648-653) were recorded. The data was acquired on a 600 MHz Bruker Avance II spectrometer with four channels and a 5 mm TCI cryoprobe (Bruker Biospin). NOESY spectra with mixing times between 120 ms and 300 ms were obtained for both samples. TOCSY mixing times of 15-80 ms were used. The experiments were run at 298.15 K. Spectra were processed using the Topspin program (Bruker Biospin). 4,4-dimethyl-4-silapentane-1-sulfonic acid (DSS) was used as a chemical shift standard, and ^15N and ^13C data were referenced using frequency ratios as described in (Wishart et al., 1995, J. Biomol. NMR., 6:135-140). For visualization, assignment and integration of the spectra the computer program CARA was used (Keller, 2004, The Computer Aided Resonance Assignment Tutorial. CANTINA Verlag, Goldau, Switzerland). The spectra were assigned using standard methods. Dihedral angle restraints were obtained from the chemical shift values using the program TALOS-N(Shen and Bax, 2013, J. Biomol. NMR, 56:227-241). Nuclear Overhauser effect (NOE) distance restraints were calculated from the peak volumes in the NOESY spectra with NOESY mixing time of 200 ms. All structure calculations were made using the structure calculation program CYANA 2.1 (Guntert et al., 1997, J. Mol. Biol., 273:283-298; Herrmann et al., 2002, J. Mol. Biol., 319:209-227). The annealing macro in CYANA calculated 100 structures. The 20 structures with the lowest energy were kept and analyzed further. The root-mean-square deviation (RMSD) was calculated and the structures were visualized using MolMol (Koradi et al., 1996, J. Mol. Graph., 14:51-55, 29-32). Generation of bacteriocin resistant mutants of E. faecalis and E. faecium.

E. faecium LMGT 3599 = test system: E. faecium LMGT 3599
Description: as §1

[1] = test system: S. pneumoniae ds220 induced; conditions: ds220 induced with ComS (2 μM), WT rseP
Description: as §1

B. cereus LMGT 3025 = test system: B. cereus LMGT 3025
Description: as §1

S. aureus LMGT 3266 = test system: S. aureus LMGT 3266
Description: as §1

E. faecalis LMGT 3358 = test system: E. faecalis LMGT 3358
Description: as §1

[2] = test system: S. pneumoniae ds220 non-induced; conditions: WT rseP
Description: as §1

[3] = test system: Staphylococcus. aureus LMGT 3310
Description: as §1

E. faecalis LMGT 3359 = test system: E. faecalis LMGT 3359
Description: as §1

S. pneumoniae ms1 = conditions: ms1, rseP H18>A, induced with ComS (2 μM)
Description: as §1

E. faecalis LMGT 3572 = test system: E. faecalis LMGT 3572
Description: as §1

L. lactis IL1403 = test system: L. lactis IL1403
Description: as §1

S. pneumoniae ms5 = conditions: for MIC: ms5, rseP HExxH>AAxxA, induced with ComS (2 μM)
Description: as §1

E. faecalis LMGT 3143 = test system: E. faecalis LMGT 3143
Description: as §1

E. faecium LMGT 3193 = test system: E. faecium LMGT 3193
Description: as §1

[4] = test system: Enterococcus. faecalis LMGT 3199
Description: as §1

E. faecium LMGT 3313 = test system: E. faecium LMGT 3313
Description: as §1

[5] = test system: L. monocytogenes LMGT 2605
Description: as §1

L. curvatus LMGT 2355 = test system: L. curvatus LMGT 2355
Description: as §1

S. aureus LMGT 3258 = test system: S. aureus LMGT 3258
Description: as §1

E. faecium LMGT 2787 = test system: E. faecium LMGT 2787
Description: as §1

| Sequence | MIC 50 (E. faecalis LMGT 3571) | MIC 50 (E. faecium LMGT 3599) | MIC [1] | MIC 50 (B. cereus LMGT 3025) | MIC 50 (S. aureus LMGT 3266) | MIC 50 (E. faecalis LMGT 3358) | MIC [2] | MIC 50 [3] | MIC 50 (E. faecalis LMGT 3359) | MIC (S. pneumoniae ms1) | MIC 50 (E. faecalis LMGT 3572) | MIC 50 (L. lactis IL1403) | MIC (S. pneumoniae ms5) | MIC 50 (E. faecalis LMGT 3143) | MIC 50 (E. faecium LMGT 3193) | MIC 50 [4] | MIC 50 (E. faecium LMGT 3313) | MIC 50 [5] | MIC 50 (L. curvatus LMGT 2355) | MIC 50 (S. aureus LMGT 3258) | other results |
| --- | --- | --- | --- | --- | --- | --- | --- | --- | --- | --- | --- | --- | --- | --- | --- | --- | --- | --- | --- | --- | --- |
| MKFKFNPTGTIVKKLTQYEIAWFKNKHGYYPWEIPRC [EntK1] | >5.5 µM | 85 nM | 700 nM | >5.5 µM | >5.5 µM | 2700 nM | >5.5 µM | >5.5 µM | >5.5 µM | >5.5 µM | >5.5 µM | 170 nM | >5.5 µM | >5.5 µM | 85 nM | 5.5 µM | 85 nM | >5.5 µM | 5.5 µM | >5.5 µM | MIC 50 (E. faecium LMGT 2787): 20 nM |
| MKTILRFVAGYDIASHKKKTGGYPWERGKA [LsbB, reference compound] | >7 µM | >7000 nM | >7000 nM | >7 µM | >7 µM | >7000 nM | >7 µM | >7 µM | >7 µM | >7 µM | >7 µM | 0.5 nM | >7 µM | >7 µM | >7000 nM | >7 µM | >7000 nM | >7 µM | >7 µM | >7 µM | times more potent than EntEJ97 (L. lactis IL1403): ~70 times; times more potent than EntK1 (L. lactis IL1403): about 340 times; MIC 50 (E. faecium LMGT 2787): >7000 nM |
| MLAKIKAMIKKFPNPYTLAAKLTTYEINWYKQQYGRYPWERPVA [EntEJ97] | 0.295 µM | 145 nM | 18 nM | 2.3 µM | 1.175 µM | 75 nM | >4.5 µM | 0.59 µM | 0.145 µM | 0.3 µM | 0.145 µM | 37 nM | 0.6 µM | 0.145 µM | 145 nM | 0.145 µM | 145 nM | 1.175 µM | 0.145 µM | >4.7 µM | times more resistant than the WT (S. pneumoniae ms5; all three conserved RseP residues replaced with alanines): 30 times; MIC 50 (E. faecium LMGT 2787): 145 nM |

From patent US11648289B2, “Antibacterial method” (priority 2016, dated 2023)
